Reference: patent CN115252762A, “一种高分子化合物的生长因子结合用途” (East China University of Science and Technology, priority 2021, dated 2022)

Columns and labels:
[1] = biological target: T1, fibroblast growth factor-21 (FGF-21) [成纤维细胞生长因子-21(FGF-21)] (Homo sapiens, UniProt Q9NSA1); assay: Glass surface FGF-21 binding, protein immunofluorescence; conditions: relative to (Lys0.4Nle0.6)30 polymer; grafted on glass
T1 sequence (Q9NSA1 29-209): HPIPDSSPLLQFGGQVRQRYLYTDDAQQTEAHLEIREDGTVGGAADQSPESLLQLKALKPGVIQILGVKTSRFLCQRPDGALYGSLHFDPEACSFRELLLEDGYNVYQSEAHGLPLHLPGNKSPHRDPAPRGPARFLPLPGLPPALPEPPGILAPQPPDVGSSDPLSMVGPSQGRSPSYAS

TGF-β = TGF-β (Homo sapiens, UniProt P01137); assay: Glass surface TGF-β binding, peptide versus polymer; conditions: relative to (Lys0.4Nle0.6)30 polymer; grafted on glass
[2] = biological target: T2, bone morphogenetic protein-2 (BMP-2) [骨形态发生蛋白-2(BMP-2)] (Homo sapiens, UniProt P12643); assay: Glass surface BMP-2 binding, protein immunofluorescence; conditions: relative to (Lys0.4Nle0.6)30 polymer; grafted on glass
T2 sequence (P12643 283-396): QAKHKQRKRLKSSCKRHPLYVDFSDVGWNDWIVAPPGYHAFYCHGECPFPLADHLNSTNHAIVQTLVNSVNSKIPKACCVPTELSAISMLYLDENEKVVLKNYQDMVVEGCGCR

growth factors [生长因子] = assay: Glass surface growth factor binding, peptide versus polymer (overall); conditions: peptide versus (Lys0.4Nle0.6)30 polymer; grafted on glass
[3] = biological target: platelet-derived factor PDGF-AA [血小板衍生因子PDGF-AA] (Homo sapiens, UniProt P04085); assay: Glass surface PDGF-AA binding, peptide versus polymer; conditions: relative to (Lys0.4Nle0.6)30 polymer; grafted on glass

TGF-β, sequence (P01137 279-390 limits assumed): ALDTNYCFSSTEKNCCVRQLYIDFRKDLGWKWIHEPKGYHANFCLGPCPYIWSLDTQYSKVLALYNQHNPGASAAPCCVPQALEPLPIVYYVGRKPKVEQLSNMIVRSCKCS

Substance: (L-Lys)-(L-Nor)-(D-Lys)-(D-Nor)-(L-Nor)-(L-Lys)-(D-Nor)-(D-Lys)-(L-Nor)-(D-Nor)-(L-Lys)-(L-Nor)-(D-Lys)-(D-Nor)-(L-Nor)-(L-Lys)-(D-Nor)-(D-Lys)-(L-Nor)-(D-Nor)-(L-Lys)-(L-Nor)-(D-Lys)-(D-Nor)-(L-Nor)-(L-Lys)-(D-Nor)-(L-Nor)-(L-Cys) [Lys0.4Nle0.6多肽]
- FGF-21 binding amount, multiple of peptide polymer [1]: 2.55 fold
- TGF-β binding amount, multiple of peptide polymer (TGF-β): 1.61 fold
- BMP-2 binding amount, multiple of peptide polymer [2]: 1.99 fold
- growth factor binding compared with polymer (growth factors [生长因子]): 优于聚合物
- PDGF-AA binding amount, multiple of peptide polymer [3]: 2.06 fold
